Measurements reported in PubChem BioAssay (NCI).
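How tested: cells in 96-well plates exposed to compound for 48 hours at five concentrations. The concentration for full growth arrest is given as TGI.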

How the values were obtained:
Experiment in all cases: growth of human tumour cells (NCI), 48 h
[1] = system: 786-0 renal
[2] = system: ACHN renal
[3] = system: CAKI-1 renal
[4] = system: CCRF-CEM leukemia
[5] = system: DU-145 prostate
[6] = system: EKVX NSCLC
[7] = system: HCC-2998 colon
[8] = system: HCT-116 colon
[9] = system: HCT-15 colon
[10] = system: HL-60(TB) leukemia
[11] = system: HOP-62 NSCLC
[12] = system: HOP-92 NSCLC
[13] = system: HS 578T breast
[14] = system: IGROV1 ovarian
[15] = system: K-562 leukemia
[16] = system: KM12 colon
[17] = system: LOX IMVI melanoma
[18] = system: M14 melanoma
[19] = system: MCF7 breast
[20] = system: MDA-MB-231 breast
[21] = system: MDA-MB-435
[22] = system: MDA-N
[23] = system: MOLT-4 leukemia
[24] = system: NCI-H226 lung
[25] = system: NCI-H23 lung
[26] = system: NCI-H460 lung
[27] = system: NCI-H522 lung
[28] = system: NCI/ADR-RES ovarian
[29] = system: OVCAR-3 ovarian
[30] = system: OVCAR-4 ovarian
[31] = system: OVCAR-8 ovarian
[32] = system: PC-3 prostate
[33] = system: RPMI-8226 leukemia
[34] = system: RXF 393 renal
[35] = system: SF-268 CNS
[36] = system: SF-295 CNS
[37] = system: SF-539 CNS
[38] = system: SK-MEL-2 melanoma
[39] = system: SK-MEL-28 melanoma
[40] = system: SK-MEL-5 melanoma
[41] = system: SK-OV-3 ovarian
[42] = system: SNB-75 CNS
[43] = system: SR leukemia
[44] = system: SW-620 colon
[45] = system: T-47D breast
[46] = system: TK-10 renal
[47] = system: U251 CNS
[48] = system: UACC-257 melanoma
[49] = system: UO-31 renal

C(=N/Nc1ccc(-c2nc3ccccc3[nH]2)cc1)/c1c(-c2ccccc2)[nH]c2ccccc12
TGI [1]: > 100 µM | TGI [2]: > 100 µM | TGI [3]: > 100 µM | TGI [4]: > 100 µM | TGI [5]: > 100 µM | TGI [6]: > 100 µM | TGI [7]: 1.22 µM | TGI [8]: 16.8 µM | TGI [9]: > 100 µM | TGI [10]: 1.06 µM | TGI [11]: 30.9 µM | TGI [12]: > 100 µM | TGI [13]: 0.889 µM | TGI [14]: > 100 µM | TGI [15]: 11.9 µM | TGI [16]: > 100 µM | TGI [17]: > 100 µM | TGI [18]: > 100 µM | TGI [19]: > 100 µM | TGI [20]: 12 µM | TGI [21]: 0.785 µM | TGI [22]: 0.185 µM | TGI [23]: > 100 µM | TGI [24]: 6.47 µM | TGI [25]: > 100 µM | TGI [26]: 32.3 µM | TGI [27]: 2.02 µM | TGI [28]: 17.4 µM | TGI [29]: 0.591 µM | TGI [30]: > 100 µM | TGI [31]: > 100 µM | TGI [32]: 3.92 µM | TGI [33]: 0.82 µM | TGI [34]: > 100 µM | TGI [35]: > 100 µM | TGI [36]: 12.7 µM | TGI [37]: 55.2 µM | TGI [38]: 0.794 µM | TGI [39]: > 100 µM | TGI [40]: > 100 µM | TGI [41]: 20.5 µM | TGI [42]: 59.9 µM | TGI [43]: 17.1 µM | TGI [44]: 75 µM | TGI [45]: > 100 µM | TGI [46]: > 100 µM | TGI [47]: 8.69 µM | TGI [48]: > 100 µM | TGI [49]: > 100 µM
